Source: US7166299B2, “Preparation of aqueous clear solution dosage forms with bile acids” (priority 1998, dated 2007)
Where “and” joins values, the source holds several entries; their conditions need not be identical. Equal entries are not always repeated. Where two headings read alike, the source gives them in different places.

Key:
[1] = cited from earlier work
[2] = human, oral, Nagamatsu et al. (1997), cited from earlier work
[3] = Hematic levels of UDCA and glyco UDCA after oral administration of 200 mg UDCA aqueous solution to three healthy men (Example VI); type: in vivo, human
Method: The aqueous solution dosage forms, according to this invention, containing 200 mg of ursodeoxycholic acid (UDCA), were prepared according to the method described in the above-described Example III and were administered to three healthy men having normal body weight after fasting. The hematic levels of UDCA and glyco UDCA were evaluated by means of well known chemical methods. After applying buffered serum to sep-pak column, methanol eluate was derivatized with phenacyl bromide at 80° C. for 45 minutes. These phenacyl bromide derivatives were dissolved in acetonitrile in preparation for HPLC. The experimental results of the absorption measured at certain times after dosage administration include the total absorption expressed as the area under the serum concentration-time curve (AUC: μg/mL×hours), the maximum hematic concentration (Cmax; μg/mL) that has been obtained, and the time (Tmax; hour) in which said maximum concentration has been obtained.
The experimental pharmacokinetic tests of the aqueous solution dosage forms according to this invention carried out on men show substantial improvement in AUC, Cmax and Tmax in comparison with the best results from any dosage forms known presently.
Table 4A and Table 4B show plasma concentration of UDCA and GUDCA measured in 3 men over time following on oral administration of the UDCA and GUDCA containing formulations according to Example VI and comparison of results against results of others employing different pharmaceutical formulations of UDCA.

[4] = UDCA levels in human after oral administration of liquid solution or syrup containing 600 mg UDCA per day (five subjects); type: in vivo; design: unit not given here
Excerpt: FIG. 3: Diagram of the mean(n=5) for group I for pharmacokinetic parameters of UDCA in human after an oral administration of liquid formulation of UDCA prepared according to Example IX without bismuth. FIG. 4: Diagram of the mean(n=5) for group II for pharmacokinetic parameters of UDCA in human after an oral administration of liquid formulation of UDCA prepared according to Example IX. […] Cmax is shown. Five human subjects were provided with dosage forms prepared according to this Example. The results are shown in Tables 5A and 5B and rendered graphically in FIGS. 3 and 4.

[5] = oral, 200 mg UDCA solution of this invention

concentration at 0.25 h ([3]; male, human, plasma, po, 200 mg, 200 mg UDCA solution of this invention, 0.25 h, three men): 8430 ± 1690 ng/mL
concentration at 1 h ([3]; male, human, plasma, po, 200 mg, 200 mg UDCA solution of this invention, 1 h, three men): 1150 ± 470 ng/mL
concentration at 1.5 h ([3]; male, human, plasma, po, 200 mg, 200 mg UDCA solution of this invention, 1.5 h, three men): 320 ± 110 ng/mL
concentration at 0.5 h ([3]; male, human, plasma, po, 200 mg, oral, 200 mg UDCA solution of this invention, 0.5 h, three men, read-out: Plasma concentration, mean): 6550 ± 1050 ng/mL
concentration at 0.5 h ([3]; male, human, plasma, po, 200 mg, oral, 200 mg UDCA solution of this invention, 0.5 h, read-out: Plasma concentration, individual men #1-#3): 4450 ng/mL
concentration at 2 h ([3]; male, human, plasma, po, 200 mg, oral, 200 mg UDCA solution of this invention, 2 h, three men, read-out: Plasma concentration, mean): 190 ± 30 ng/mL
concentration at 2 h ([3]; male, human, plasma, po, 200 mg, oral, 200 mg UDCA solution of this invention, 2 h, read-out: Plasma concentration, individual men #1-#3): 235 ng/mL
concentration at 3 h ([3]; male, human, plasma, po, 200 mg, oral, 200 mg UDCA solution of this invention, 3 h, three men, read-out: Plasma concentration, mean): 170 ± 40 ng/mL
concentration at 3 h ([3]; male, human, plasma, po, 200 mg, oral, 200 mg UDCA solution of this invention, 3 h, read-out: Plasma concentration, individual men #1-#3): 124 ng/mL
AUC ([3]; male, human, plasma, po, 200 mg, oral, 200 mg UDCA solution of this invention, three men, read-out: AUC, mean): 5460 ± 660 ng·h/mL
AUC ([3]; male, human, plasma, po, 200 mg, oral, 200 mg UDCA solution of this invention, read-out: AUC, individual men #1-#3): 4320 ng·h/mL
Tmax ([3]; male, human, plasma, po, 200 mg, oral, 200 mg UDCA solution of this invention, read-out: Tmax, individual men #1-#3): 15 min
Cmax ([3]; male, human, serum, po, 200 mg, oral, 200 mg UDCA solution of this invention, three men, read-out: Cmax, mean): 8430 ± 1690 ng/mL
Tmax ([3]; male, human, serum, po, 200 mg, oral, 200 mg UDCA solution of this invention, three men, read-out: Tmax, mean): 15 min
AUC, individual men #1-#3 [3, 5]: 6600 ng·h/mL and 5470 ng·h/mL
Plasma concentration, individual men #1-#3 ([3]; oral, 200 mg UDCA solution of this invention, 0.5 h): 7743.2 ng/mL and 7439.5 ng/mL
Plasma concentration, individual men #1-#3 ([3]; oral, 200 mg UDCA solution of this invention, 2 h): 217.6 ng/mL and 122.7 ng/mL
Plasma concentration, individual men #1-#3 ([3]; oral, 200 mg UDCA solution of this invention, 3 h): 207.4 ng/mL
Cmax compared with enteric coated sodium salt of UDCA preparations ([3]; oral, 200 mg, men): at least two times higher
Cmax compared with regular UDCA tablet preparations ([3]; oral, 200 mg, men): four times higher
Tmax compared with the fastest Tmax previously known ([3]; oral, 200 mg, men): at least three times faster
UDCA level, Average ([4]; Table 5A: human, oral liquid solution containing 600 mg UDCA per day, 0 min): 0.618
UDCA level, Average ([4]; Table 5A: human, oral liquid solution containing 600 mg UDCA per day, 5 min): 4.578
UDCA level, Average ([4]; Table 5A: human, oral liquid solution containing 600 mg UDCA per day, 15 min): 20.394
UDCA level, Average ([4]; Table 5A: human, oral liquid solution containing 600 mg UDCA per day, 60 min): 10.202
UDCA level, Average ([4]; Table 5A: human, oral liquid solution containing 600 mg UDCA per day, 120 min): 2.168
UDCA level, Average ([4]; Table 5A: human, oral liquid solution containing 600 mg UDCA per day, 240 min): 0.772
UDCA level, Average ([4]; Table 5B: human, oral syrup containing 600 mg UDCA per day, 0 min): 0.398
UDCA level, Average ([4]; Table 5B: human, oral syrup containing 600 mg UDCA per day, 5 min): 1.976
UDCA level, Average ([4]; Table 5B: human, oral syrup containing 600 mg UDCA per day, 15 min): 7.144
UDCA level, Average ([4]; Table 5B: human, oral syrup containing 600 mg UDCA per day, 60 min): 15.000
UDCA level, Average ([4]; Table 5B: human, oral syrup containing 600 mg UDCA per day, 120 min): 4.820
UDCA level, Average ([4]; Table 5B: human, oral syrup containing 600 mg UDCA per day, 240 min): 1.258
SMILES: C[C@H](CCC(=O)O)[C@H]1CC[C@H]2[C@@H]3[C@@H](O)C[C@@H]4C[C@H](O)CC[C@]4(C)[C@H]3CC[C@]12C [UDCA, ursodeoxycholic acid (3α-7β-dihydroxy-5β-cholanic acid)]
solubility in the gastric juices and in aqueous hydrochloric acid solution [1]: especially insoluble
solubility in the gastric pH range [1]: no longer soluble
solubility in water [1]: practically insoluble
Cmax (M ± S.E.) ([2]; 200 mg): 1900 ± 250 ng/mL
Tmax (M ± S.E.) ([2]; 200 mg): 90 ± 24 min
Cmax (M ± S.E.) ([2]; 400 mg): 7090 ± 1430 ng/mL
Tmax (M ± S.E.) ([2]; 400 mg): 48 ± 12 min
Cmax, individual men #1-#3 [3, 5]: 5210 ng/mL and 10920 ng/mL and 9160 ng/mL
Plasma concentration, individual men #1-#3 ([3]; oral, 200 mg UDCA solution of this invention, 0.25 h): 5120.2 ng/mL and 10917.1 ng/mL and 9159 ng/mL
Plasma concentration, individual men #1-#3 ([3]; oral, 200 mg UDCA solution of this invention, 1 h): 1692.1 ng/mL and 1546 ng/mL and 216.3 ng/mL
Plasma concentration, individual men #1-#3 ([3]; oral, 200 mg UDCA solution of this invention, 1.5 h): 525.6 ng/mL and 275.9 ng/mL and 168 ng/mL
